Measurements reported in BigSolDB 2.1.

N#Cc1cccc([N+](=O)[O-])c1C#N
solubility (mole fraction)
Details | 278.15 K | 283.15 K | 288.15 K | 293.15 K | 298.15 K | 303.15 K | 308.15 K | 313.15 K | 318.15 K | 323.15 K
in NMP | 0.0839 | 0.0936 | 0.104 | 0.115 | 0.128 | 0.141 | 0.155 | 0.17 | 0.186 | 0.203
in acetone | 0.0204 | 0.0242 | 0.0286 | 0.0338 | 0.0399 | 0.0472 | 0.0558 | 0.0661 | 0.0783 | 0.0929
in ethanol | 0.000924 | 0.00111 | 0.00134 | 0.0016 | 0.00194 | 0.00232 | 0.00273 | 0.00325 | 0.00382 | 0.00448
in ethyl acetate | 0.0178 | 0.0208 | 0.0242 | 0.0281 | 0.0324 | 0.0372 | 0.0426 | 0.0487 | 0.0555 | 0.063
in ethylene glycol | 0.0131 | 0.0158 | 0.019 | 0.0226 | 0.0268 | 0.0317 | 0.0373 | 0.0438 | 0.0512 | 0.0596
in isobutanol | 0.000381 | 0.000424 | 0.000477 | 0.000552 | 0.000643 | 0.000765 | 0.000921 | 0.00111 | 0.00135 | 0.00169
in isopropanol | 0.000561 | 0.000681 | 0.000837 | 0.00103 | 0.00125 | 0.00151 | 0.00179 | 0.00216 | 0.00257 | 0.00305
in methanol | 0.00203 | 0.0024 | 0.00283 | 0.00332 | 0.00388 | 0.00452 | 0.00523 | 0.00597 | 0.00695 | 0.00796
in n-butanol | 0.000411 | 0.000478 | 0.000569 | 0.000686 | 0.000836 | 0.001 | 0.0012 | 0.00143 | 0.00171 | 0.00207
in n-propanol | 0.000735 | 0.000899 | 0.00109 | 0.00132 | 0.00159 | 0.00189 | 0.00226 | 0.00268 | 0.00317 | 0.00373
in toluene | 0.000946 | 0.00116 | 0.00142 | 0.00173 | 0.0021 | 0.00254 | 0.00305 | 0.00367 | 0.00437 | 0.00521
in water | 5.32e-05 | 6.38e-05 | 7.98e-05 | 9.78e-05 | 0.00012 | 0.000146 | 0.000176 | 0.00021 | 0.00025 | 0.000298
